The values that follow come from patent US20250043349A1, “DEORPHANIZING ODORS USING SINGLE CELL SEQUENCING” (PRESIDENT AND FELLOWS OF HARVARD COLLEGE, priority 2021, published 2025).

One experiment deals with M72 receptor. The settings on record: Arneodo et al. 2018; Zhang et al. 2012; cited from earlier work.
The subject of the next experiment is M72 (Olfr160). As to the kind of experiment: Act-Seq activation score in OSNs expressing M72. Type of experiment: in vivo, mouse. The settings on record: compared with acetophenone. The method, then:
Act-Seq (Wu et al., 2017) was performed following odor exposure to quantify odor-evoked responses in each OSN subtype (defined by their expressed OR) across the entire OR repertoire. Mice were habituated to a reversed light cycle for at least for 1 week before odor exposure, transferred to a new disposable cage with regular bedding/food and kept overnight in a satellite animal facility. On the experimental day, each mouse was first transferred to a new empty disposable cage during the dark cycle and habituated for 20 minutes. Empty cages were used to avoid any activation by odorants present within the environments in which the mice were housed. Odors were added to a piece of filter paper (100 μL of odorant) in a 35 mm petri dish and a cotton ball (200 μL of odorant) and placed in each cage. […]
The remaining 169 activation genes that were also considered as HVGs often had weak loadings across multiple GEPs. […] To summarize the effects of odor activation across this set of activation genes, the TPT-expression of these activation genes were z-scored (using means and standard deviations for these genes in the control, acetophenone, and octanal datasets, identified by subsampling equal numbers of cells across all ORs expressed in at least 6 cells across 100 restarts). […] PCA was performed on the differences in z-scored activation gene expression between control and odor conditions. […]

The target in experiment [1] is T1, OR10A6 (Homo sapiens, UniProt Q8NH74).
T1 sequence (Q8NH74 1-314): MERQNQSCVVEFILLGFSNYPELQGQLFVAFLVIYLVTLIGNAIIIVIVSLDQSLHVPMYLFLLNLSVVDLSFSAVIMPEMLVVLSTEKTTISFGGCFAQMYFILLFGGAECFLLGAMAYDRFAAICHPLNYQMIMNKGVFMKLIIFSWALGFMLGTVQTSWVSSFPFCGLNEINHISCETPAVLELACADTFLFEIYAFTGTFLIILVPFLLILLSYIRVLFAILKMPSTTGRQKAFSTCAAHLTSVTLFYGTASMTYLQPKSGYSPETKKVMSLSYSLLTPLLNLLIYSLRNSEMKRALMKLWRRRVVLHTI
The following applies: previous study (doi.org/10.3390/molecules25204743); cited from earlier work.

Experiment [2] addresses T1, OR10A6. As to the kind of experiment: In vivo human act-seq: nasal swab after 1 hour exposure, IEG expression in OSNs. Also on record: endogenous in cells; host or cells: olfactory sensory neurons of a human subject, exposed in vivo and collected by nasal swab. The following applies: human subject. The method, then: FIG. 16A-16D show in vivo human act-seq data. FIG. 16A depicts a UMAP plot showing olfactory cells obtained from a human subject using a nasal swab after 1 hour exposure to 2-phenylethanol, which smells like rose oil. 1 hour exposure is performed by asking the subject to sniff the odor vial every 2-5 minutes. All major olfactory cell types were identified. OSN: olfactory sensory neuron lineage (progenitors and immature or mature neurons). SUS: sustentacular cells. HBC: horizontal basal cell. MV: microvillar cells. BG: Bowman's gland cells. FIG. 16B examines total count normalized expression of GFY gene (a mature OSN marker) in the UMAP plot. FIG. 16C examines total count normalized expression of immediate early genes (IEG) in OSNs that expressed odorant receptors (OR). […] Horizontal bars indicate mean across cells.

In another experiment the test system is olfactory bulb glomeruli. As to the kind of experiment: In vivo olfactory bulb imaging of OSN axons (GCaMP glomerular odor responses). The settings on record: odor panel, anesthetized mice. Set-up: species or system mouse. As to the method:
All surgical procedures were performed in accordance with the guidelines provided by IACUC at Harvard Medical School. Prior to surgery. 4-6 weeks old Omp-IRES-Cre: Ai951) (GCaMP6f) mice, were subcutaneously injected with the analgesic Buprenorphine-SR (1 mg/kg) and anesthetized 1-2 hours later with isoflurane (3% induction. 1-2% maintenance). The skin overlying the left olfactory bulb was retracted and the underlying periosteum was scraped off with a scalpel. The skull was subsequently cleaned with saline and allowed to dry. A 2.5 mm circular craniotomy was made using a biopsy punch (Integra Miltex) taking care not to damage the underlying dura. Gelfoam saturated with cold saline was placed over the craniotomy to reduce swelling and suppress minor bleeds. A custom cranial window was constructed using two circular coverslips (Warner Instruments, 3 mm. #1 thickness). […]
Chronic imaging of the dorsal surface of the olfactory bulb was performed after recovery from the surgery (1-2 weeks) under ketamine (100 mg/kg) and xylazine (10 mg/kg) induced anesthesia, to specifically isolate responses in OSN axons with less modulation from local interneurons and long-range cortical feedback. Depth of anesthesia was assessed every 15 minutes via the toc-pinch reflex and intraperitoneal ketamine was administered at 1/3 concentration of the induction dose for anesthesia maintenance. […]

Experiment [3] relates to OSN subtypes (odorant receptors, ORs). As to the kind of experiment: Act-Seq: scSeq of olfactory epithelium after two-hour odor exposure (IEG expression, activated ORs, activation score). Type of experiment: in vivo, mouse. The method, then: Act-Seq (Wu et al., 2017) was performed following odor exposure to quantify odor-evoked responses in each OSN subtype (defined by their expressed OR) across the entire OR repertoire. Mice were habituated to a reversed light cycle for at least for 1 week before odor exposure, transferred to a new disposable cage with regular bedding/food and kept overnight in a satellite animal facility. On the experimental day, each mouse was first transferred to a new empty disposable cage during the dark cycle and habituated for 20 minutes. Empty cages were used to avoid any activation by odorants present within the environments in which the mice were housed. Odors were added to a piece of filter paper (100 μL of odorant) in a 35 mm petri dish and a cotton ball (200 μL of odorant) and placed in each cage. After 2 hours, mice were euthanized, and dissociation was performed as described below. Odors used in this study were as follows. Dipropylene glycol (DPG, control solvent), and 10% of acetophenone, octanal, 2-hydroxy acetophenone, 4-methyl acetophenone, and methyl salicylate. As a control, mice were exposed to DPG alone for 30 min. This control condition was used to account for any drift in transcriptomes during the overnight housing and habituation periods prior to odor exposure and designed to capture the transcriptome in the state it would have been in the odor-exposed animals prior to odor exposure. […] Act-Seq was also performed using lower concentrations of acetophenone (1.0, 0.1, 0.01%) and 2-hydroxy acetophenone (0.1%, 0.01%). All odor dilutions were made with DPG, and all odors and DPG were obtained from Sigma. To assess the persistence of any transcriptional changes observed as a result of odor exposure, a cohort of mice was exposed to acetophenone or DPG for 2 hours, transferred to new clean regular home cages, and subjected to scSeq after an additional 22 hours.
The main olfactory epithelium was dissected in Earle's Balanced Salt Solution (EBSS, pre-treated with carbogen for at least 5 minutes before each use, Worthington), then transferred to a round-bottomed glass dish containing 750 μL of papain solution (one vial of Papain (Worthington) dissolved in 5 mL of EBSS and then equilibrated 10 minutes at 37° C.) and 100 μL of DNase solution (one vial of DNase-I (Worthington) dissolved in 500 μL of EBSS). Bone was removed from the epithelium under a dissecting microscope and the resulting epithelial tissue was placed in a 5 mL tube (Becton Dickinson) with an additional 1.75 mL of Papain solution and 200 μL of DNase-I solution and rocked gently for-60 minutes at 37° C. The tissue was then gently triturated with a 5 mL pipette 10-15 times, passed through a 40 μm cell strainer (Becton Dickinson), and washed with 1 mL of Hibernate-A medium containing 10% Fetal Bovine Serum (FBS. GIBCO). Filtered cells were transferred to a new 5 mL tube and centrifuged 5 minutes at 300×g. The supernatant was decanted, the cells were washed once with 4 mL Hibernate-A containing 10% FBS and resuspended in 1 mL Hibernate-A containing 0.2% FBS. Importantly, each of the solutions above contained transcriptional inhibitors (5 μg/mL of Actinomycin D, 10 μg/mL of Anisomycin and 10 μM of Triptolide, all obtained from Sigma) for all experiments, especially the Act-Seq experiments, except where noted.
OSN subtypes that were responsive to odorants were identified via a two-step process. First, individual OSNs (as defined by the expressed OR) were determined as activated based on their mean z-scored immediate early genes (IEG) expression. A set of 10 IEGs were used (Btg2, Egr1, Fos, Fosb, Gm13889, Junb, Nr4a1, Nr4a2, Pcdh10, and Srxn1). […] The set of 10 IEGs was used since even though all of the IEGs were specific to acute activation by odors, they were still only detected in a minority of cells due to the sparse nature of scSeq. […]

For the compound 2-hydroxyacetophenone, in the experiment with M72 receptor, the “binding to the M72 receptor relative to acetophenone” value was “binds more strongly to the M72 receptor”. For the same compound, the “activation scores in OSNs expressing M72” value with M72 (Olfr160) was “higher activation scores than acetophenone”.
As to `OCCc1ccccc1` [2-phenylethanol], the “activation of OR10A6 in vitro” value on OR10A6 [1] was “activated”. In addition, the “mean total count normalized expression of 9 IEGs in OSNs expressing OR10A6 vs other ORs” value on OR10A6 [2] is recorded as “much higher IEG expression”.
Consider `CCCCC=O` [Pentanal], for which the “breadth of responses across the population of glomeruli” value in the experiment with olfactory bulb glomeruli was “broadest responses across the population of glomeruli”.
Take `CCCCCCCC=O` [octanal]: in experiment [3] (Fisher's exact test, overlap at chance levels), the “overlap between ORs activated by ACE and OCT, odds ratio” value is 1.42. Moreover, the “z-scored expression of 10 immediate early genes (IEGs) for each OSN subtype, odor vs control” value in experiment [3] (odor vs control (DPG) conditions) is given as “higher in the odor conditions”.
